Test results: patent US9758524B2, “4-imidazopyridazin-1-yl-benzamides as Btk inhibitors” (Merck Sharp & Dohme B.V., priority 2011, dated 2017)
Like-named read-outs stand apart in the source and are kept apart here.

Experiments:
Lyn enzyme = Lyn enzyme (Homo sapiens (Human), UniProt P07948); assay: Lyn enzyme activity (IMAP fluorescence polarization assay); conditions: for EC50 Lyn activity values: bin bound in μM
Src enzyme = Src enzyme (Homo sapiens (Human), UniProt P12931); assay: Src enzyme activity (IMAP fluorescence polarization assay); conditions: read-out: EC50 Src activity values; IMAP, 60 min pre-incubation, 4 μM ATP
Lck enzyme = Lck enzyme (Homo sapiens (Human), UniProt P06239); assay: Lck enzyme activity (IMAP fluorescence polarization assay)
Btk enzyme (His-Btk) = Btk enzyme (His-Btk) (Homo sapiens (Human), UniProt Q06187); assay: Btk enzyme activity (IMAP fluorescence polarization assay)
Description: Inhibition of kinase activity can be measured using the Immobilized Metal Assay for Phosphochemicals (IMAP) assay. IMAP is a homogeneous fluorescence polarization (FP) assay based on affinity capture of phosphorylated peptide substrates. IMAP uses fluorescein-labeled peptide substrates that, upon phosphorylation by a protein kinase, bind to so-called IMAP nanoparticles, which are derivatized with trivalent metal complexes.
Final peptide substrate concentration in assay is 50 nM.

FynT enzyme = FynT enzyme (Homo sapiens (Human), UniProt P06241); assay: FynT enzyme activity (IMAP fluorescence polarization assay); assay type: biochemical; conditions: 60 min pre-incubation, 0.2 μM ATP
Description: FynT enzyme activity is measured using the IMAP (immobilized metal ion affinity-based fluorescence polarization) assay as outlined below.
Test compounds and FynT enzyme are pre-incubated 60 minutes at room temperature, before adding 5 μL/well of 400 nM Fluorescin labeled substrate peptide (p34cdc2 substrate peptide, e.g. #R7157/#R7172, Molecular Devices) in KR-buffer. Final peptide substrate concentration in assay is 100 nM. […] Following incubation for 2 h at room temperature the enzyme reaction is stopped by adding 40 μL/well IMAP Progressive Binding Solution (according to suppliers (Molecular Devices) protocol using 75% 1× buffer A and 25% 1× buffer B with 1:600 Progressive Binding Solution). After 60 min incubation at room temperature in the dark the FP signal is read. […] Values are calculated as percentage of the difference in readout (ΔmPi) of the controls with and without ATP. EC50 values are determined by curve fitting of the experimental results using Activity Base.

[1] = 60 min pre-incubation, 2 μM ATP
[2] = EC50 Lyn activity values, 60 min pre-incubation, 2 μM ATP, bin bound in nM
[3] = IMAP, 60 min pre-incubation, 6 μM ATP, bin bound in μM
[4] = read-out: EC50 Btk activity values, IMAP, 60 min pre-incubation, 5 μM ATP, bin bound in nM
[5] = read-out: EC50 Lyn activity values, 60 min pre-incubation, 2 μM ATP, bin bound in μM
[6] = read-out: EC50 Lck activity values, IMAP, 60 min pre-incubation, 6 μM ATP, bin bound in μM
[7] = IMAP, 60 min pre-incubation, 5 μM ATP, bin bound in nM
[8] = IMAP, 60 min pre-incubation, 5 μM ATP, bin bound in μM

Lyn enzyme, sequence (P07948 whole entry): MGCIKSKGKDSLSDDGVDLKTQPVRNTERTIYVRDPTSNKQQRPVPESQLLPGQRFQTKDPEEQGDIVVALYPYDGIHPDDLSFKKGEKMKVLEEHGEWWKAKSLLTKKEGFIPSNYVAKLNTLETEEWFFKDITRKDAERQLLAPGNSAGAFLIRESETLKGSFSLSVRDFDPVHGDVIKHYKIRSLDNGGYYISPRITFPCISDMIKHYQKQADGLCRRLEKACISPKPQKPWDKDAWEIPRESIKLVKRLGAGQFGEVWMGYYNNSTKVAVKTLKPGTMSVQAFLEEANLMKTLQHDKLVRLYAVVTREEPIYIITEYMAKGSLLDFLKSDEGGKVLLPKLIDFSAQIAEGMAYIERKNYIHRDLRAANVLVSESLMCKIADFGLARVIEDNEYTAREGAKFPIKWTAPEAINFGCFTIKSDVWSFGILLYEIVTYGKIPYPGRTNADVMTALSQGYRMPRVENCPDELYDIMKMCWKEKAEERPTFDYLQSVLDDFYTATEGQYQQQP
Lck enzyme, sequence (P06239 whole entry): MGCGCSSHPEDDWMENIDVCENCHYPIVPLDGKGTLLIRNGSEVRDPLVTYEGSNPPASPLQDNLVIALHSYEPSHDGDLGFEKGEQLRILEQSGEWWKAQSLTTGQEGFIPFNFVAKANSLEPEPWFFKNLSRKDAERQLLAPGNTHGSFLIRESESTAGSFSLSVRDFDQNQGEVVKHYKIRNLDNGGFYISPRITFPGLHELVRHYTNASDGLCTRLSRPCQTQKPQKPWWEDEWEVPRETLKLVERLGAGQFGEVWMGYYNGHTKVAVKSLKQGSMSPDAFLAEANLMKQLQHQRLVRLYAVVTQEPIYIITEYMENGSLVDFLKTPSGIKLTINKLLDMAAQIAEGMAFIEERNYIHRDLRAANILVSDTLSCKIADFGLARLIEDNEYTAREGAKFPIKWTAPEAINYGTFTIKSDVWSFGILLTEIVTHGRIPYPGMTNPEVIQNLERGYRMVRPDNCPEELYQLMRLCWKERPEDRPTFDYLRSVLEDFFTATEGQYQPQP
Btk enzyme (His-Btk), sequence (Q06187 whole entry): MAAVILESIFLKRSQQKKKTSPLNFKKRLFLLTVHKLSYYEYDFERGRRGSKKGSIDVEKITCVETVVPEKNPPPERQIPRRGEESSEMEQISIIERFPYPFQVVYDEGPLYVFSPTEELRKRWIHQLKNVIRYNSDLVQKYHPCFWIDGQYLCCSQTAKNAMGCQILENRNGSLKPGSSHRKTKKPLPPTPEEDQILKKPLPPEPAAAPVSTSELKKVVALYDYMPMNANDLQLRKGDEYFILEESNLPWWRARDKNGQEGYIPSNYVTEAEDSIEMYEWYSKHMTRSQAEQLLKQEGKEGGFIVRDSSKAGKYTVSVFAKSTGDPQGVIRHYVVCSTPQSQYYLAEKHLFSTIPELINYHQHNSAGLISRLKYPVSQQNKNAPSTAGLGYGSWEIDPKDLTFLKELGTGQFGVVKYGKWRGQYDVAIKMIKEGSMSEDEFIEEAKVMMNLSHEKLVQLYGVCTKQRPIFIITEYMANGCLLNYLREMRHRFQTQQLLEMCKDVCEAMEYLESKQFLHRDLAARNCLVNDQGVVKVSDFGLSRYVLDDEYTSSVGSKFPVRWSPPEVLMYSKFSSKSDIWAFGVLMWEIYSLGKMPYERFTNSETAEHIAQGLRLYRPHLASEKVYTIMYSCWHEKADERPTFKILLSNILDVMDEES
Src enzyme, sequence (P12931 whole entry, looked up): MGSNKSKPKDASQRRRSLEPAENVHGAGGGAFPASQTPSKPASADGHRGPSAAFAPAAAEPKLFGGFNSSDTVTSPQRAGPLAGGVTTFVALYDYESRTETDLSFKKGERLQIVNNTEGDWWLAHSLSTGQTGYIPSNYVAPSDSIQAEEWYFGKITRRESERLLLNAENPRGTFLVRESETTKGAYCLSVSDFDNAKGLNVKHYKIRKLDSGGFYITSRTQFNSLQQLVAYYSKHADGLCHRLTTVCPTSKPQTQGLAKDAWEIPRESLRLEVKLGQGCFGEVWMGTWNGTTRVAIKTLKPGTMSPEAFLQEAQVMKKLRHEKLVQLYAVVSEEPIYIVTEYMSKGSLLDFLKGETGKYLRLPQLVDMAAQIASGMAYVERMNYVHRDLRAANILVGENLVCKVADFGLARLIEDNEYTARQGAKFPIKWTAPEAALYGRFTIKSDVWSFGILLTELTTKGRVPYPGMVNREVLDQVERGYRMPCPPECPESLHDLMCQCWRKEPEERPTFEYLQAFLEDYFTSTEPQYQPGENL
FynT enzyme, sequence (P06241 other isoform, or with tags, fused parts or gaps): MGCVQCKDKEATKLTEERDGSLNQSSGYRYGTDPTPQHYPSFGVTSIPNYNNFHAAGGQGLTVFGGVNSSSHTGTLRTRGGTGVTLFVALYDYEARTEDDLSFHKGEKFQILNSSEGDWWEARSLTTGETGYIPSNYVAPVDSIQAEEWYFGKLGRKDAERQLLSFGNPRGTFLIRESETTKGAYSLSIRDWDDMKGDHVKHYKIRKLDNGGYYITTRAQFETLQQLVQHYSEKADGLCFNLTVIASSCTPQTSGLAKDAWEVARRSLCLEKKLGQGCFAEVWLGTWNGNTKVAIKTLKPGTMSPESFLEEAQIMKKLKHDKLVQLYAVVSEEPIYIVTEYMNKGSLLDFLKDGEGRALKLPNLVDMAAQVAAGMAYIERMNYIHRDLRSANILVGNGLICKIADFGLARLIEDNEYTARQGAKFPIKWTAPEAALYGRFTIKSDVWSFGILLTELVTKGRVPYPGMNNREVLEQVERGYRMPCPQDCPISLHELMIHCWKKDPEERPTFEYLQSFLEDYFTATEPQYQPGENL

| EC50 Lyn activity values (Lyn enzyme; [1]) [µM] | EC50 (Lyn enzyme; [2]) [nM] | EC50 (Src enzyme) [nM] | EC50 (Lck enzyme) [µM] | EC50 Lck activity values (Lck enzyme; [3]) [µM] | EC50 (Btk enzyme (His-Btk); [4]) [nM] | EC50 (FynT enzyme) [nM] | EC50 (Lyn enzyme; [5]) [nM] | EC50 (Lck enzyme; [6]) [µM] | EC50 (Btk enzyme (His-Btk)) [nM] | EC50 Btk activity values (Btk enzyme (His-Btk); [7]) [nM] | EC50 Btk activity values (Btk enzyme (His-Btk); [8]) [nM] | EC50 (Btk enzyme (His-Btk); read-out: EC50 Btk activity values, IMAP, 60 min pre-incubation, 5 μM ATP, bin bound in μM) [nM] | Compound |
| --- | --- | --- | --- | --- | --- | --- | --- | --- | --- | --- | --- | --- | --- |
| <1 | 100 to 1000 | ≥ 1000 | 0.1 to 1 | <1 | < 10 | ≥ 1000 | – | – | – | – | – | – | C=CC(=O)N1CCC[C@H]1c1nc(-c2ccc(C(=O)Nc3cc(CC)ccn3)cc2)c2c(N)nccn12 [Example 126, (S)-4-(3-(1-acryloylpyrrolidin-2-yl)-8-aminoimidazo[1,5-a]pyrazin-1-yl)-N-(4-ethylpyridin-2-yl)benzamide] |
| – | – | ≥ 1000 | – | – | – | ≥ 1000 | ≥ 1000 | ≥ 1 | 10 to 100 | <100 | – | – | CC#CC(=O)N1CCCC[C@H]1c1nc(-c2ccc(C(=O)Nc3ccon3)cc2)c2c(N)nccn12 [Example 24, (S)-4-(8-Amino-3-(1-but-2-ynoylpiperidin-2-yl)imidazo[1,5-a]pyrazin-1-yl)-N-(isoxazol-3-yl)benzamide] |
| – | – | ≥ 1000 | 0.1 to 1 | <1 | < 10 | ≥ 1000 | ≥ 1000 | – | – | – | – | – | C=CC(=O)N1CCC[C@H]1c1nc(-c2ccc(C(=O)Nc3cc(C#N)ccn3)cc2)c2c(N)nccn12 [Example 122, (S)-4-(3-(1-acryloylpyrrolidin-2-yl)-8-aminoimidazo[1,5-a]pyrazin-1-yl)-N-(4-cyanopyridin-2-yl)benzamide] |
| – | – | ≥ 1000 | – | – | < 10 | ≥ 1000 | ≥ 1000 | ≥ 1 | – | – | – | – | CCCC#CC(=O)N1CCC[C@H]1c1nc(-c2ccc(C(=O)Nc3ccccn3)cc2)c2c(N)nccn12 [Example 36, (S)-4-(8-Amino-3-(1-hex-2-ynoylpyrrolidin-2-yl)imidazo[1,5-a]pyrazin-1-yl)-N-(pyridin-2-yl)benzamide] |
| – | – | ≥ 1000 | – | – | – | ≥ 1000 | ≥ 1000 | ≥ 1 | 10 to 100 | <100 | – | – | CC#CC(=O)N1CCC[C@H]1c1nc(-c2ccc(C(=O)Nc3cc(N4CCCC4)ccn3)cc2)c2c(N)nccn12 [Example 96, (S)-4-(8-amino-3-(1-but-2-ynoylpyrrolidin-2-yl)imidazo[1,5-a]pyrazin-1-yl)-N-(4-(pyrrolidin-1-yl)pyridin-2-yl)benzamide] |
| – | – | ≥ 1000 | – | – | – | ≥ 1000 | ≥ 1000 | ≥ 1 | 100 to 1000 | – | <1000 | – | COC/C=C/C(=O)N1CCCC[C@H]1c1nc(-c2ccc(C(=O)Nc3cccnn3)cc2)c2c(N)nccn12 [Example 72, (S,E)-4-(8-amino-3-(1-(4-methoxybut-2-enoyl)piperidin-2-yl)imidazo[1,5-a]pyrazin-1-yl)-N-(pyridazin-3-yl)benzamide] |
| <1 | 100 to 1000 | ≥ 1000 | 0.1 to 1 | <1 | < 10 | ≥ 1000 | – | – | – | – | – | – | C=CC(=O)N1CCC[C@H]1c1nc(-c2ccc(C(=O)Nc3cc(CCC)ccn3)cc2)c2c(N)nccn12 [Example 125, (S)-4-(3-(1-acryloylpyrrolidin-2-yl)-8-aminoimidazo[1,5-a]pyrazin-1-yl)-N-(4-propylpyridin-2-yl)benzamide] |
| – | – | ≥ 1000 | – | – | < 10 | ≥ 1000 | ≥ 1000 | ≥ 1 | – | – | – | – | COC/C=C/C(=O)N(C)[C@@H](C)c1nc(-c2ccc(C(=O)Nc3cc(C(F)(F)F)ccn3)cc2)c2c(N)nccn12 [Example 75, (S,E)-4-(8-amino-3-(1-(4-methoxy-N-methylbut-2-enamido)ethyl)imidazo[1,5-a]pyrazin-1-yl)-N-(4-(trifluoromethyl)pyridin-2-yl)benzamide] |
| – | – | ≥ 1000 | – | – | – | ≥ 1000 | ≥ 1000 | ≥ 1 | – | – | – | ≥ 1000 | C=C(C)C(=O)N1CCC[C@H]1c1nc(-c2ccc(C(=O)Nc3ccccn3)cc2)c2c(N)nccn12 [Example 91, (S)-4-(8-amino-3-(1-methacryloylpyrrolidin-2-yl)imidazo[1,5-a]pyrazin-1-yl)-N-(pyridin-2-yl)benzamide] |
| – | – | ≥ 1000 | – | – | – | ≥ 1000 | ≥ 1000 | ≥ 1 | 100 to 1000 | – | <1000 | – | COC/C=C/C(=O)N1CCCC[C@H]1c1nc(-c2ccc(C(=O)Nc3ccon3)cc2)c2c(N)nccn12 [Example 54, (S,E)-4-(8-amino-3-(1-(4-methoxybut-2-enoyl)piperidin-2-yl)imidazo[1,5-a]pyrazin-1-yl)-N-(isoxazol-3-yl)benzamide] |
| – | – | ≥ 1000 | – | – | < 10 | ≥ 1000 | ≥ 1000 | ≥ 1 | – | – | – | – | CC(C)(O)C#CC(=O)N1CCC[C@H]1c1nc(-c2ccc(C(=O)Nc3ccccn3)cc2)c2c(N)nccn12 [Example 32, (S)-4-(8-Amino-3-(1-(4-hydroxy-4-methylpent-2-ynoyl)pyrrolidin-2-yl)imidazo[1,5-a]pyrazin-1-yl)-N-(pyridin-2-yl)benzamide] |
| – | – | ≥ 1000 | – | – | – | ≥ 1000 | ≥ 1000 | ≥ 1 | 10 to 100 | <100 | – | – | COC/C=C/C(=O)N1CCC[C@H]1c1nc(-c2ccc(C(=O)Nc3cc(C(C)C)ccn3)cc2)c2c(N)nccn12 [Example 58, (S,E)-4-(8-amino-3-(1-(4-methoxybut-2-enoyl)pyrrolidin-2-yl)imidazo[1,5-a]pyrazin-1-yl)-N-(4-isopropylpyridin-2-yl)benzamide] |
| – | – | ≥ 1000 | – | – | – | ≥ 1000 | ≥ 1000 | ≥ 1 | 10 to 100 | <100 | – | – | COC/C=C/C(=O)N1CCCC[C@H]1c1nc(-c2ccc(C(=O)Nc3cc(F)ccn3)cc2)c2c(N)nccn12 [Example 81, (S,E)-4-(8-amino-3-(1-(4-methoxybut-2-enoyl)piperidin-2-yl)imidazo[1,5-a]pyrazin-1-yl)-N-(4-fluoropyridin-2-yl)benzamide] |
| – | – | ≥ 1000 | 0.1 to 1 | <1 | < 10 | ≥ 1000 | ≥ 1000 | – | – | – | – | – | CC#CC(=O)N1CCCC[C@H]1c1nc(-c2ccc(C(=O)Nc3cc(CCC)ccn3)cc2)c2c(N)nccn12 [Example 64, (S)-4-(8-amino-3-(1-but-2-ynoylpiperidin-2-yl)imidazo[1,5-a]pyrazin-1-yl)-N-(4-propylpyridin-2-yl)benzamide] |
| – | – | ≥ 1000 | – | – | < 10 | ≥ 1000 | ≥ 1000 | ≥ 1 | – | – | – | – | CC#CC(=O)N[C@@H](C)c1nc(-c2ccc(C(=O)Nc3ccccn3)cc2)c2c(N)nccn12 [Example 30, (S)-4-(8-Amino-3-(1-but-2-ynamidoethyl)imidazo[1,5-a]pyrazin-1-yl)-N-(pyridin-2-yl)benzamide] |
| – | – | ≥ 1000 | – | – | < 10 | ≥ 1000 | ≥ 1000 | ≥ 1 | – | – | – | – | CN(C)C/C=C/C(=O)N1CCC[C@H]1c1nc(-c2ccc(C(=O)Nc3nccs3)cc2)c2c(N)nccn12 [Example 15, (S,E)-4-(8-Amino-3-(1-(4-(dimethylamino)but-2-enoyl)pyrrolidin-2-yl)imidazo[1,5-a]pyrazin-1-yl)-N-(thiazol-2-yl)benzamide] |
| – | – | ≥ 1000 | – | – | – | ≥ 1000 | ≥ 1000 | ≥ 1 | 10 to 100 | <100 | – | – | CC#CC(=O)N(C)[C@@H](C)c1nc(-c2ccc(C(=O)Nc3cc(CCC)ccn3)cc2)c2c(N)nccn12 [Example 113, (S)-4-(8-amino-3-(1-(N-methylbut-2-ynamido)ethyl)imidazo[1,5-a]pyrazin-1-yl)-N-(4-propylpyridin-2-yl)benzamide] |
| – | – | ≥ 1000 | – | – | < 10 | ≥ 1000 | ≥ 1000 | ≥ 1 | – | – | – | – | COC/C=C/C(=O)N1CCC[C@H]1c1nc(-c2ccc(C(=O)Nc3cc(C(F)(F)F)ccn3)cc2)c2c(N)nccn12 [Example 128, (S,E)-4-(8-amino-3-(1-(4-methoxybut-2-enoyl)pyrrolidin-2-yl)imidazo[1,5-a]pyrazin-1-yl)-N-(4-(trifluoromethyl)pyridin-2-yl)benzamide] |
| – | – | ≥ 1000 | – | – | – | ≥ 1000 | ≥ 1000 | ≥ 1 | 10 to 100 | <100 | – | – | COCC#CC(=O)N1CCC[C@H]1c1nc(-c2ccc(C(=O)Nc3ccccn3)cc2)c2c(N)nccn12 [Example 41, (S)-4-(8-Amino-3-(1-(4-methoxybut-2-ynoyl)pyrrolidin-2-yl)imidazo[1,5-a]pyrazin-1-yl)-N-(pyridin-2-yl)benzamide] |
